According to patent US20130130387A1, “METHOD FOR GENERATING INDUCED PLURIPOTENT STEM CELLS FROM KERATINOCYTES DERIVED FROM PLUCKED HAIR FOLLICLES” (Technion Research & Development Foundation Limited, priority 2010, published 2013):
“Also recorded” adds a separate entry of the source.

Experiments:
HFKTs (KTN) = experiment: Conditions improving HFKT reprogramming: validated iPSC colonies; type: cell-based, human; settings: for Validated iPSCs colonies: frozen virus, reduced virus concentration
[1] = system: HFKT-iPSC-CMs (β-adrenergic signaling pathway); experiment: [Ca2+]i transients and contractions of HFKT-iPSC-derived cardiomyocytes; type: cell-based, human; settings: HFKT-iPSC-CMs clone KTR13, 37 day-old EB, stimulated at 0.6 Hz; effect within 2-3 min
Procedure: [Ca^2+]i transients and contractions were measured in small dissociated contracting areas of EBs by means of fura-2 fluorescence (Biotium, Hayward, Calif., USA) and a video edge detector, respectively, as previously described (Dolnikov et al. 2006; Sedan et al. 2008).
In order to investigate the basic properties of the intracellular Ca^2+ ([Ca^2+]i) handling machinery and the mechanical function, [Ca^2+]I transients and contractions were recorded from small contracting clusters of the HFKT-iPSC-CMs by means of fura-2 fluorescence and a video edge detector, respectively.

Row | Compound | Validated iPSCs colonies (HFKTs (KTN); KTN + Cherry (3 reprogramming factors, no c-Myc)) | Validated iPSCs colonies (HFKTs (KTN); KTN + Stemcca (4 reprogramming factors)) | Generation of iPSCs with reduced number of factors (HFKTs (KTN); polycistronic vector with Oct4, Klf4 and Sox2, without c-Myc (cherry vector)) | Effect on [Ca2+]i transient and contraction amplitudes [1]
1 | Cc1c[nH]c(-c2cnc(NCCNc3ccc(C#N)cn3)nc2-c2ccc(Cl)cc2Cl)n1 [CHIR99021] | 6 | 2 | able to generate iPSCs with no c-Myc | 
2 | CC(C)NCC(O)c1ccc(O)c(O)c1 (stereo not shown) [isoproterenol] |  |  |  | marked concentration-dependent positive inotropic effect; also recorded: increase in contraction amplitude
